Test results: US9518018B2, “3-alkoxy, thioalkyl and amino-4-amino-6-(substituted)picolinates and their use as herbicides” (Dow AgroSciences LLC, priority 2011, dated 2016)

Key:
[1] = system: ABUTH: velvetleaf (Abutilon theophrasti); test: Post-Emergent Test I herbicidal activity; format: in vivo; details: Abutilon theophrasti, post-emergence, 336 h, read-out: Visual Growth Reduction (%)-14 Days after Application ABUTH; for pest or weed control at 280 g/ha: Table 3, 280 g ai/ha; for pest or weed control at 70 g/ha: Table 3, 70 g ai/ha; for pest or weed control at 140 g/ha: Table 3, 140 g ai/ha
In short: (§1)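 Visual injury ratings (0 = none, 100 = complete kill) taken 14 d after treatment underlie these values, with GR20, GR50 and GR80 obtained by probit analysis. Plants were treated post-emergence at the first or second true-leaf stage by overhead spray at 187 L/ha.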

[2] = system: CHEAL: lambsquarters (Chenopodium album); test: Post-Emergent Test I herbicidal activity; format: in vivo; details: Chenopodium album, post-emergence, 336 h, read-out: Visual Growth Reduction (%)-14 Days after Application CHEAL; for pest or weed control at 280 g/ha: Table 3, 280 g ai/ha; for pest or weed control at 70 g/ha: Table 3, 70 g ai/ha; for pest or weed control at 140 g/ha: Table 3, 140 g ai/ha
In short: as §1

[3] = system: CYPES: yellow nutsedge (Cyperus esculentus); test: Post-Emergent Test I herbicidal activity; format: in vivo; details: post-emergence, 336 h, read-out: Visual Growth Reduction (%)-14 Days after Application CYPES; for pest or weed control at 280 g/ha: Table 3, 280 g ai/ha; for pest or weed control at 70 g/ha: Table 3, 70 g ai/ha; for pest or weed control at 140 g/ha: Table 3, 140 g ai/ha
In short: as §1

[4] = system: ECHCG: barnyardgrass (Echinochloa crus-galli); test: Post-Emergent Test I herbicidal activity; format: in vivo; details: post-emergence, 336 h, read-out: Visual Growth Reduction (%)-14 Days after Application ECHCG; for pest or weed control at 280 g/ha: Table 3, 280 g ai/ha; for pest or weed control at 70 g/ha: Table 3, 70 g ai/ha; for pest or weed control at 140 g/ha: Table 3, 140 g ai/ha
In short: (§2)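 Plants grown in greenhouse to first/second true leaf. Compound formulated in acetone:DMSO 97:3 then diluted into crop-oil/surfactant aqueous mix; serial twofold rates. Sprayed at 187 L/ha, 43 cm above canopy; solvent-blank controls. Scored visually at 14 d; probit fit for GR values.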

[5] = system: EPHHL: wild poinsettia (Euphorbia heterophylla); test: Post-Emergent Test I herbicidal activity; format: in vivo; details: post-emergence, 336 h, read-out: Visual Growth Reduction (%)-14 Days after Application EPHHL; for pest or weed control at 280 g/ha: Table 3, 280 g ai/ha; for pest or weed control at 70 g/ha: Table 3, 70 g ai/ha; for pest or weed control at 140 g/ha: Table 3, 140 g ai/ha
In short: as §1

[6] = system: ORYSA: rice (Oryza sativa); test: Post-Emergent Test I herbicidal activity; format: in vivo; details: post-emergence, 336 h, read-out: Visual Growth Reduction (%)-14 Days after Application ORYSA; for pest or weed control at 280 g/ha: Table 3, 280 g ai/ha; for pest or weed control at 70 g/ha: Table 3, 70 g ai/ha; for pest or weed control at 140 g/ha: Table 3, 140 g ai/ha
In short: as §2

ZEAMX: corn (Zea mays) = test: Post-Emergent Test I herbicidal activity; format: in vivo; details: Zea mays, post-emergence, 336 h, read-out: Visual Growth Reduction (%)-14 Days after Application ZEAMX; for pest or weed control at 280 g/ha: Table 3, 280 g ai/ha; for pest or weed control at 70 g/ha: Table 3, 70 g ai/ha; for pest or weed control at 140 g/ha: Table 3, 140 g ai/ha
In short: as §1

Structure (SMILES)	melting point [°C]	pest or weed control at 140 g/ha [1] [%]	pest or weed control at 140 g/ha [2] [%]	pest or weed control at 140 g/ha [3] [%]	pest or weed control at 140 g/ha [4] [%]	pest or weed control at 140 g/ha [5] [%]	pest or weed control at 140 g/ha [6] [%]	pest or weed control at 140 g/ha (ZEAMX: corn (Zea mays)) [%]	also measured
CCc1nc(C(=O)O)c(OC)c(N)c1F [Compound 58]	148.5 to 150.5	–	–	–	–	–	–	–	pest or weed control at 280 g/ha [1]: 60%; pest or weed control at 280 g/ha [2]: 80%; pest or weed control at 280 g/ha [3]: 0%; pest or weed control at 280 g/ha [4]: 0%; pest or weed control at 280 g/ha [5]: 65%; pest or weed control at 280 g/ha [6]: 0%; pest or weed control at 280 g/ha (ZEAMX: corn (Zea mays)): 10%
COc1c(C(=O)O)nc(-c2cc(F)c(Br)cc2F)c(F)c1N [Compound 59]	147 to 148	–	–	–	–	–	–	–	pest or weed control at 70 g/ha [1]: 80%; pest or weed control at 70 g/ha [2]: 100%; pest or weed control at 70 g/ha [3]: 50%; pest or weed control at 70 g/ha [4]: 100%; pest or weed control at 70 g/ha [5]: 100%; pest or weed control at 70 g/ha [6]: 5%; pest or weed control at 70 g/ha (ZEAMX: corn (Zea mays)): 70%
COc1c(C(=O)O)nc(-c2cc(F)c(I)cc2F)c(F)c1N [Compound 60]	132 to 134	–	–	–	–	–	–	–	pest or weed control at 70 g/ha [1]: 60%; pest or weed control at 70 g/ha [2]: 90%; pest or weed control at 70 g/ha [3]: 50%; pest or weed control at 70 g/ha [4]: 95%; pest or weed control at 70 g/ha [5]: 100%; pest or weed control at 70 g/ha [6]: 15%; pest or weed control at 70 g/ha (ZEAMX: corn (Zea mays)): 75%
COc1c(C(=O)O)nc(-c2ccc(I)cc2F)c(F)c1N [Compound 62]	143 to 145	15	100	50	100	100	8	75	–
COc1c(C(=O)O)nc(-c2ccc(C(F)(F)F)nc2)c(F)c1N [Compound 63]	160 to 162	90	100	100	95	100	50	80	–
COc1c(Cl)ccc(-c2cc(N)c(OC(F)F)c(C(=O)O)n2)c1F [Compound 64]	169 to 171	–	–	–	–	–	–	–	pest or weed control at 280 g/ha [1]: 50%; pest or weed control at 280 g/ha [2]: 85%; pest or weed control at 280 g/ha [3]: 0%; pest or weed control at 280 g/ha [4]: 0%; pest or weed control at 280 g/ha [5]: 95%; pest or weed control at 280 g/ha [6]: 0%; pest or weed control at 280 g/ha (ZEAMX: corn (Zea mays)): 10%
CCOC(=O)c1nc(-c2ccc(Cl)cc2F)cc(N)c1OCC(F)(F)F [Compound 67, ethyl 4-amino-6-(4-chloro-2-fluorophenyl)-3-(2,2,2-trifluoro-ethoxy)picolinate]	123 to 125	–	–	–	–	–	–	–	pest or weed control at 280 g/ha [1]: 25%; pest or weed control at 280 g/ha [2]: 50%; pest or weed control at 280 g/ha [3]: 0%; pest or weed control at 280 g/ha [4]: 0%; pest or weed control at 280 g/ha [5]: 35%; pest or weed control at 280 g/ha [6]: 0%; pest or weed control at 280 g/ha (ZEAMX: corn (Zea mays)): 0%
CSc1c(C(=O)O)nc(-c2ccc(Cl)c(F)c2)c(F)c1N [Compound 72]	168 to 170	80	100	90	0	100	30	60	–
CSc1c(C(=O)O)nc(Cl)c(F)c1N [Compound 73]	176 to 178	10	10	0	0	50	0	0	–
COC(=O)c1nc(Cl)c(F)c(N)c1SC [Compound 74, Methyl 4-amino-6-chloro-5-fluoro-3-(methylthio)picolinate]	75 to 77	0	0	0	0	0	0	0	–
COC(=O)c1nc(-c2ccc(Cl)cc2)cc(N(C)C)c1N [Compound 87, Methyl 3-amino-6-(4-chlorophenyl)-4-(dimethylamino)picolinate]	153 to 154	90	90	90	40	100	0	0	–
CCOC(=O)c1nc(-c2ccc(Cl)c(OC)c2F)cc(N)c1SC [Compound 88, Ethyl 4-amino-6-(4-chloro-2-fluoro-3-methoxyphenyl)-3-(methylthio)picolinate]	93 to 94	100	100	60	100	100	0	80	–
COC(=O)c1nc(-c2ccc(Cl)c(F)c2)c(F)c(N)c1SC [Compound 93, Methyl 4-amino-6-(4-chloro-3-fluorophenyl)-5-fluoro-3-(methylthio)picolinate]	125 to 126	30	90	0	0	50	0	0	–
COC(=O)c1nc(-c2ccc(Cl)c(OC)c2F)c(F)c(N)c1SC [Compound 94, Methyl 4-amino-6-(4-chloro-2-fluoro-3-methoxyphenyl)-5-fluoro-3-(methylthio)picolinate]	113 to 117	60	85	0	0	65	0	0	–
